What was measured:
[1] = test system: CD86 expression on TLR4 mutant BMDDC; assay: Flow cytometry of cell-surface CD86 on TLR4 mutant (C3H/HeJ) BMDDC; type: cell-based, mouse; conditions: overnight, oligonucleotide 5 μM, LPS 1 μg/ml, normalized to untreated
Procedure: (§1) Bone marrow was harvested from female mice 6-12 weeks old of various genotypes (C57Bl/6, Balb/c; Charles River; or C3H/HeJ, Jackson Labs). Bone marrow cells were used fresh or were frozen in fetal calf serum (FCS; Summit) containing 10% dimethylsulfoxide and stored at −80° C. Bone-marrow macrophages (BMMO) were prepared as described in Current Protocols in Immunology, supra. Briefly, fresh or frozen bone marrow cells were cultured in RPMI, 10% heat inactivated (30 minutes, 56° C.) fetal calf serum (FCS), 2 mM L-glutamine, 100 μg/ml streptomycin, 100 units/ml penicillin, 50 μM β-mercaptoethanol and 100 U/ml recombinant macrophage colony stimulating factor (M-CSF; R&D Systems). After 24 hours, nonadherent cells were removed to a new dish, and culture continued for 7 days to produce a macrophage monolayer. […]
(§2) BMDDC were treated overnight with adjuvants as indicated, washed, resuspended in cold PBS/2% FBS containing FcBlock (0.25 μg/10^6 cells; Pharmingen), and FITC- and PE-conjugated antibodies (1 μg/10^6 cells) were added 5 minutes later. Cells were incubate with antibodies on ice 30 minutes, washed, and analyzed by flow cytometry on a FACScan (Becton-Dickenson). […] Changes in CD86 expression are assessed based on geometric mean fluorescence of CD86-FITC staining of the live CD11c cells treated with adjuvants normalize to the geometric mean CD86-FITC fluorescence of untreated BMDDC cultures. […]

MyD88 [2] = assay: κB-Luc assay in RAW 264.7 cells co-transfected with dominant-negative MyD88lpr; type: cell-based, mouse; conditions: κB-Luc:MyD88lpr 10:1 or 1:1, oligonucleotides 4 μM, MPL 1 μg/ml, LPS 1 μg/ml
NF-κB = assay: κB-Luc assay in RAW 264.7 macrophages; type: cell-based, mouse; conditions: for κB-dependent luciferase expression: RAW 264.7 transfected with κB-Luc, IL-1 20 ng/ml, MPL 1 μg/ml, oligonucleotides 4 μM, normalized to untreated transfected cells
Procedure: RAW 264.7 cells were seeded into 6-well plates (Corning) at a density of 3×10^5 cells per well 24 hours prior to transfection. Plasmids used in transfection were pNF-κB-Luc (Clontech) and pCR3. V64-Met-Flag-MyD88lpr (kindly provided by Jurgen Tschopp; described in (Burns et al., J. Biol. Chem., 1998, 273, 12203-9). Total plasmid DNA concentration was normalized across all wells by addition of empty vector (pCMVKm2, Chiron). Cells were transfected with stated concentrations of DNA in Opti-MEM I (Gibco BRL) with […] of LipofectAMINE (Gibco BRL) per well according to manufacturer's instructions. Cells were incubated with the transfection mixture 3 hours at 37° C., then culture media was replaced and cells were allowed to recover overnight. The following day transfected cells were treated in culture media at 37° C., 5% CO2 with phosphorothioate oligonucleotides, MPL, LPS, or cytokines at indicated concentrations and times. Cells were washed once with cold phosphate buffered saline (PBS), and lysed with Reporter Lysis BufferJ (Promega). Luciferase activity in lysate supematants was determined using Microlite 2 plates (Dynex) and a ML 3000 Luminometer (Dynatech) all according to manufacture's instructions. For detection of FLAG-MyD88lpr expression, the insoluble pellet from transfected RAW 264.7 cells was resuspended in Triton lysis buffer and sonicated 10 minutes prior to addition of sample buffer and boiling. After separation and transfer to nitrocellulose, membranes were immunoblotted using FLAG M2 (Sigma) antibody.
To directly evaluate κB-dependent transcription induced by CpG oligonucleotide or MPL treatment, RAW 264.7 macrophage were transfected with an NF-κB-inducible reporter plasmid encoding luciferase under the control of multiple copies of the kappa light chain enhancer (κB-Luc) and the following day treated with adjuvants or cytokines. In particular, RAW 264.7 cells were transfected with a kB-driven luciferase reporter gene and treated 24 hours later with IL-1 (20 ng/ml), MPL (1 μg/ml), LPS (1 μg/ml) or a phosphorothioate CpG oligonucleotide (4 μM) for 6 hours. Luciferase activity in cell lysates was quantified by luminometry, and results were normalized to the luciferase signal in untreated transfected cells.
The effects of CpG oligonucleotide on κB-dependent luciferase expression were dose- and time-dependent (see FIGS. 1B and 1C). In regard to FIG. 1B, RAW 264.7 cells transiently transfected with a κB-luciferase reporter plasmid were treated 24 hours later with concentrations of phosphorothioate CpG oligonucleotide concentrations ranging from 0.25-8 μM, or a control oligonucleotide (4 μM) for 6 hours. Activation was detected at CpG oligonucleotide concentrations as low as 0.25 μM (FIG. 1B), but not at the lowest concentration tested (0.05 μM) (data not shown). Data shown in FIG. 1B are average luciferase activity in lysates from duplicate wells normalized to luciferase levels in lysates from untreated transfected wells on the same 6-well tissue culture plate. […] In regard to FIG. 1C, RAW 264.7 cells transiently transfected with a kB-Luc and treated 24 hours later with a CpG-containing oligonucleotide (4 μM; open circles), or LPS (1 μg/ml; filled circles). Results shown in FIG. 1C are average of duplicate wells normalized to untreated transfected wells.

[3] = test system: MAPK pathways, including ERK, JNK and p38; assay: Immunoblotting for MAPK pathway phosphorylation (ERK1/2, JNK/c-jun, p38 substrate ATF2); type: cell-based, mouse; conditions: BMMO, dendritic cells and RAW 264.7; within an hour of stimulation; oligonucleotides 1 μM; data not shown
Procedure: as §1, with “monolayer. Nonadherent BMDDCs were produced by culture in the same medium supplemented with GM-CSF (200 U/ml; Preprotech) rather than M-CSF.” for “monolayer.”
Macrophages were differentiated from bone marrow cells of C57Bl/6 mice as described in Example 1 and then transferred to low serum medium lacking M-CSF for 4 hours. […] The positive result for ERK½ MAPK activation in RAW 264.7 cells and BMMO are in contrast to observations in another mouse macrophage cell line, J774, where ERK phosphorylation was not detected in CpG oligonucleotide-treated cells.

MyD88 [4] = assay: κB luciferase assay of NIH-3T3 cells transfected with MyD88 dominant-negative constructs; type: cell-based, murine; conditions: FIG. 3A
Excerpt: (§3) In another set of experiments, three MyD88 constructs lacking the ability to transduce signals were amplified by PCR, and placed under constitutive control of the CMV promoter (pCMV-FLAG vector, Sigma Aldrich). The first construct, MyD88lpr, contains a point mutation F56N in the death domain. The second construct, MyD88-ΔDD, lacks the death domain completely. The third construct, MyD88-THD, lacks both the death domain and the intermediate domain. The DNA was transfected into RAW 264.7 cells or murine embryonic NIH-3T3 cells using a cationic lipid reagent. A luciferase reporter plasmid was cotransfected. […] Cells were then stimulated with CpG oligonucleotides and several control cytokines. Luciferase expression was assayed on a luminometer to determine if the mutant MyD88 protein had affected CpG signaling. Restriction analysis and sequencing results confirmed the presence of the MyD88 constructs (data not shown). […] The MyD88 TIR domain alone was sufficient to block signaling.

IκBα = assay: Immunoblotting for phosphorylated and total IκBα in RAW 264.7 cells; type: cell-based, mouse; conditions: 4 μM
Procedure: Following stimulation, BMMO or RAW 264.7 cells were lysed in 1% Triton X-100, 50 mM Tris, 62.5 mM EDTA (pH 8.0) with CompleteJ protease inhibitor cocktail (Boehringer Mannheim) (Triton lysis buffer). Lysates were boiled in reducing sample buffer, separated on 10% polyacrylamide gels using the NuPAGEJ Bis-Tris electrophoresis system (Novex). Nitrocellulose membranes were probed with antibodies against IκB-α, phosphorylated-IκB-α, (New England BioLabs), or anti-IL-18 (Santa Cruz Biotechnology) according to manufacturer's instructions, and visualized with enhanced chemiluminescence (Amersham).
Lysates were also prepared from untreated RAW 264.7 cells or cells treated with a phosphorothioate CpG oligonucleotide (4 μM) for 5, 10, 20 and 60 minutes as well as a control oligonucleotide lacking CpG motifs for 60 minutes. The lysates were then resolved by electrophoresis, and immunoblotted with antisera to phosphorylated IκBα and total IκBα. […] This activation was detected at the level of IκBα phosphorylation within 10 minutes of CpG oligonucleotide addition, and degradation of IκBα was notable at 20 minutes.

MyD88 [5] = assay: κB luciferase assay of RAW 264.7 cells transfected with MyD88 dominant-negative constructs; type: cell-based, mouse; conditions: FIG. 3B
Excerpt: as §3

CD86 expression on BMDDC = assay: Flow cytometry of cell-surface CD86 on wild-type (Balb/c) BMDDC; type: cell-based, mouse; conditions: overnight, oligonucleotides 5 μM, LPS 1 μg/ml, normalized to untreated
Procedure: as §1, §2

ERK = conditions: J774 mouse macrophage cell line; cited from earlier work

Molecule | Cell-surface CD86 expression on live CD11c positive cells [1] | Effect of dominant-negative MyD88lpr expression on induced κB-dependent luciferase activity (MyD88 [2]) | κB-dependent luciferase expression (NF-κB; 6 hours, LPS 1 μg/ml) | Phosphorylation of ERK, JNK and/or the JNK substrate c-jun, and of the p38 MAPK substrate ATF2 [3] | Effect of dominant negative MyD88 constructs (MyD88lpr, MyD88-ΔDD, MyD88-THD) on signaling to κB luciferase reporter (MyD88 [4]) | other results
monophosphoiyl lipid A [MPL] | no change in CD86 expression | inhibited | potent activators of NF-κB |  |  | 
tccaggacttctctcaggtt (TCCAGGACTTCTCTCAGGTT; DNA, all phosphorothioate, methylation of C not given here) [control oligonucleotide] |  |  | did not induce an increase | not |  | 
tccatgacgttcctgacgtt [CpG oligonucleotide] | an increase in CD86 expression similar to that observed in the wild-type BMDDC | inhibited | induced κB-dependent luciferase expression, to a level similar to that induced by MPL or LPS | observed in all three cell types | specifically and selectively blocks signaling | Time at which IκBα phosphorylation was detected after addition (IκBα): ≤ 10 min; Time at which degradation of IκBα was notable (IκBα): 20 min; Effect of dominant negative MyD88 constructs (MyD88lpr, MyD88-ΔDD, MyD88-THD) on signaling to κB luciferase reporter (MyD88 [5]): specifically and selectively blocks signaling; Cell-surface CD86 expression on live CD11c positive cells (CD86 expression on BMDDC): increased cell-surface CD86 expression; κB-Luc activation at the lowest concentration tested (NF-κB; RAW 264.7, 0.05 μM, data not shown): not; Activation of the reporter gene at 10 μM dose relative to 8 μM (NF-κB; RAW 264.7, 10 μM, data not shown): not further enhanced; Concentration of maximal activation of the reporter gene (NF-κB; RAW 264.7, 6 hours, FIG. 1B): 8 µM; Lowest concentration at which κB-Luc activation was detected (NF-κB; RAW 264.7, 6 hours, FIG. 1B): 0.25 µM; Increase of κB-dependent luciferase expression by 2 hours (NF-κB; RAW 264.7, CpG oligonucleotide 4 μM, LPS 1 μg/ml, FIG. 1C): greater than two-fold increase; ERK phosphorylation (ERK): not detected
IL-1: recombinant mouse interleukin-1β (Endogen) (protein, UniProt P10749 118-269, looked up) Interleukin-1 beta: VPIRQLHYRLRDEQQKSLVLSDPYELKALHLNGQNINQQVIFSMSFVQGEPSNDKIPVALGLKGKNLYLSCVMKDGTPTLQLESVDPKQYPKKKMEKRFVFNKIEVKSKVEFESAEFPNWYISTSQAEHKPVFLGNNSGQDIIDFTMESVSS |  |  | poor activator |  | did inhibit | 
IL-18: recombinant mouse interleukin-18 (Biosource) (protein, UniProt P70380 36-192, looked up) Interleukin-18: NFGRLHCTTAVIRNINDQVLFVDKRQPVFEDMTDIDQSASEPQTRLIIYMYKDSEVRGLAVTLSVKDSKMSTLSCKNKIISFEEMDPPENIDDIQSDLIFFQKRVPGHNKMEFESSLYEGHFLACQKEDDAFKLILKKKDENGDKSVMFTLTNLHQS |  |  | poor activator |  |  | 
